The target in the assay is GAL4 DBD-VP16 fusion transactivation (Human herpesvirus 1 VP16). The assay is described as follows: nonselective repression of VP16-driven luciferase – cell-based, luminescence, dose response, powder samples, counter-screen for SRC3 inhibitor project, late-stage follow-up (AID 651781). The following applies: HEK293 GAL4-VP16 UAS luciferase reporter.

Molecules are shown by their SMILES. Calls of active or inactive are those of the source.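 Rule for the calls: active = IC50 at or below 10 µM; inactive = IC50 above 10 µM.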

Drawing on PubChem BioAssay AID651781 (The Scripps Research Institute Molecular Screening Center, 2012), this text covers IC50 for 8 compounds.

One may read the IC50 as the midpoint of a concentration-inhibition curve. With `OCCN1CCN(C(=S)c2ccc(-c3ccccc3)cc2)CC1`, the IC50 result is “inactive”.

As to `O=C(Nc1ccccc1Oc1ccccc1)c1cc([N+](=O)[O-])ccc1Cl`, the IC50 result was “inactive”.

On to `O=C(COC(=O)c1ccc[nH]c1=O)Nc1ccc(N2CCCCC2)cc1`, for which the IC50 was > 35.9 µM (inactive).

With `CN1C(=O)C2(C(C#N)=C(N)N(c3cc(Cl)cc(Cl)c3)C3=C2C(=O)CC(C)(C)C3)c2ccccc21` (stereo not drawn), the IC50 entry is “inactive”.

`CCCNC(=O)c1nnsc1S(=O)(=O)c1ccc(Cl)cc1`: the IC50 was 6.04 µM.

Take `CN1C(=O)C2(C(C#N)=C(N)N(c3cc(Cl)cc(Cl)c3)C3=C2C(=O)CCC3)c2ccccc21` (stereo not drawn): the IC50 entry is “inactive”.

For `CC(C)(C)c1ccc(-c2noc(CCC(=O)Nc3cccnc3)n2)cc1`, the IC50 is 9.65 µM.

Turning to `Cc1ccc(OCC(=O)c2cc(C)n(-c3ccccc3)c2C)c([N+](=O)[O-])n1`, the IC50 result is “inactive”.
